Assay results: ChEMBL document CHEMBL1201862, “PubChem BioAssay data set” (2004)
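A five-concentration, 48-hour dose response in 96-well plates underlies each endpoint, interpolated linearly between surrounding concentrations. Here, GI50 denotes the concentration required for 50% inhibition of growth.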 Active and inactive are the calls of the source. Rule as the data show it: active = GI50 up to about 1.1 µM and inactive = higher.

Legend:
Assay in all cases: growth of human tumour cells (NCI), 48 h
786-0 = test system: 786-0
A498 = test system: A498
A549 = test system: A549
ACHN = test system: ACHN
BT-549 = test system: BT-549
CAKI-1 = test system: CAKI-1
CCRF-CEM = test system: CCRF-CEM
COLO 205 = test system: COLO 205
DU-145 = test system: DU-145
EKVX = test system: EKVX
HCC 2998 = test system: HCC 2998
HCT-116 = test system: HCT-116
HCT-15 = test system: HCT-15
HL-60 = test system: HL-60
HOP-62 = test system: HOP-62
HOP-92 = test system: HOP-92
HT-29 = test system: HT-29
IGROV-1 = test system: IGROV-1
K562 = test system: K562
KM12 = test system: KM12
LOX IMVI = test system: LOX IMVI
M14 = test system: M14
MCF7 = test system: MCF7
MDA-MB-231 = test system: MDA-MB-231
MDA-MB-435 = test system: MDA-MB-435
MDA-N = test system: MDA-N
MOLT-4 = test system: MOLT-4
Malme-3M = test system: Malme-3M
NCI-H226 = test system: NCI-H226
NCI-H23 = test system: NCI-H23
NCI-H460 = test system: NCI-H460
NCI-H522 = test system: NCI-H522
NCI/ADR-RES = test system: NCI/ADR-RES
OVCAR-3 = test system: OVCAR-3
OVCAR-4 = test system: OVCAR-4
OVCAR-5 = test system: OVCAR-5
OVCAR-8 = test system: OVCAR-8
PC-3 = test system: PC-3
RXF 393 = test system: RXF 393
SF-295 = test system: SF-295
SF-539 = test system: SF-539
SK-MEL-2 = test system: SK-MEL-2
SK-MEL-5 = test system: SK-MEL-5
SK-OV-3 = test system: SK-OV-3
SN12C = test system: SN12C
SNB-19 = test system: SNB-19
SR = test system: SR
SW-620 = test system: SW-620
T47D = test system: T47D
TK-10 = test system: TK-10
U-251 = test system: U-251
UACC-257 = test system: UACC-257
UACC-62 = test system: UACC-62
UO-31 = test system: UO-31
RPMI-8226 = test system: RPMI-8226
SF-268 = test system: SF-268
SK-MEL-28 = test system: SK-MEL-28
SNB-75 = test system: SNB-75

C1=N\c2ccc(cc2)/N=C\c2ccccc2OCc2cccc(n2)COc2ccccc2/1 was tested, and the GI50 (786-0) was 45.5 µM (inactive), the GI50 (A498) was > 100 µM (inactive) and the GI50 (A549) was > 100 µM (inactive). For the same compound, the GI50 (ACHN) was 61.4 µM (inactive), the GI50 (BT-549) was > 100 µM (inactive) and the GI50 (CAKI-1) was > 100 µM (inactive). For the same compound, the GI50 (CCRF-CEM) was > 100 µM (inactive), the GI50 (COLO 205) was > 100 µM (inactive) and the GI50 (DU-145) was > 100 µM (inactive). For the same compound, the GI50 (EKVX) was > 100 µM (inactive), the GI50 (HCC 2998) was > 100 µM (inactive) and the GI50 (HCT-116) was > 100 µM (inactive). For the same compound, the GI50 (HCT-15) was over 100 µM, the GI50 (HL-60) was > 100 µM (inactive) and the GI50 (HOP-62) was 30.1 µM (inactive). For the same compound, the GI50 (HOP-92) was > 100 µM (inactive), the GI50 (HT-29) was > 100 µM (inactive) and the GI50 (IGROV-1) was 75.2 µM (inactive). For the same compound, the GI50 (K562) was > 100 µM (inactive), the GI50 (KM12) was > 100 µM (inactive) and the GI50 (LOX IMVI) was > 100 µM (inactive). For the same compound, the GI50 (M14) was > 100 µM (inactive), the GI50 (MCF7) was > 100 µM (inactive) and the GI50 (MDA-MB-231) was 78.3 µM (inactive). The GI50 (MDA-MB-435) was > 100 µM (inactive), the GI50 (MDA-N) was > 100 µM (inactive) and the GI50 (MOLT-4) was > 100 µM (inactive). The GI50 (Malme-3M) was > 100 µM (inactive), the GI50 (NCI-H226) was > 100 µM (inactive) and the GI50 (NCI-H23) was > 100 µM (inactive). For the same compound, the GI50 (NCI-H460) was > 100 µM (inactive), the GI50 (NCI-H522) was > 100 µM (inactive) and the GI50 (NCI/ADR-RES) was > 100 µM (inactive). For the same compound, the GI50 (OVCAR-3) was > 100 µM (inactive), the GI50 (OVCAR-4) was > 100 µM (inactive) and the GI50 (OVCAR-5) was > 100 µM (inactive). For the same compound, the GI50 (OVCAR-8) was > 100 µM (inactive), the GI50 (PC-3) was > 100 µM (inactive) and the GI50 (RXF 393) was 5.19 µM (inactive). The GI50 (SF-295) was 76.9 µM (inactive), the GI50 (SF-539) was 10.7 µM (inactive) and the GI50 (SK-MEL-2) was > 100 µM (inactive). The GI50 (SK-MEL-5) was > 100 µM (inactive), the GI50 (SK-OV-3) was > 100 µM (inactive) and the GI50 (SN12C) was > 100 µM (inactive). The GI50 (SNB-19) was 21.1 µM (inactive), the GI50 (SR) was > 100 µM (inactive) and the GI50 (SW-620) was > 100 µM (inactive). The GI50 (T47D) was > 100 µM (inactive), the GI50 (TK-10) was > 100 µM (inactive) and the GI50 (U-251) was 45 µM (inactive). The GI50 (UACC-257) was > 100 µM (inactive), the GI50 (UACC-62) was > 100 µM (inactive) and the GI50 (UO-31) was > 100 µM (inactive).
With NC1CC(=O)c2c(Br)csc21 (configuration not stated) the GI50 (786-0) was 82 µM (inactive), the GI50 (A498) was 78 µM (inactive) and the GI50 (A549) was > 100 µM (inactive). The GI50 (ACHN) was 52 µM (inactive), the GI50 (BT-549) was 33 µM (inactive) and the GI50 (CAKI-1) was 55 µM (inactive). For the same compound, the GI50 (CCRF-CEM) was 42.7 µM (inactive), the GI50 (COLO 205) was 58.1 µM (inactive) and the GI50 (DU-145) was > 100 µM (inactive). The GI50 (EKVX) was 67.6 µM (inactive), the GI50 (HCC 2998) was 19.2 µM (inactive) and the GI50 (HCT-116) was 46.8 µM (inactive). For the same compound, the GI50 (HCT-15) was 35.4 µM, the GI50 (HL-60) was 39.2 µM (inactive) and the GI50 (HOP-62) was 49.8 µM (inactive). The GI50 (HT-29) was 40.6 µM (inactive), the GI50 (IGROV-1) was 33 µM (inactive) and the GI50 (K562) was 50.1 µM (inactive). For the same compound, the GI50 (KM12) was 32.1 µM (inactive), the GI50 (M14) was > 100 µM (inactive) and the GI50 (MCF7) was 49 µM (inactive). The GI50 (MDA-MB-231) was > 100 µM (inactive), the GI50 (MDA-MB-435) was 21.2 µM (inactive) and the GI50 (MDA-N) was 12.5 µM (inactive). For the same compound, the GI50 (MOLT-4) was 46.6 µM (inactive), the GI50 (Malme-3M) was 46.8 µM (inactive) and the GI50 (NCI-H460) was 41 µM (inactive). For the same compound, the GI50 (NCI/ADR-RES) was > 100 µM (inactive), the GI50 (OVCAR-3) was 50.6 µM (inactive) and the GI50 (OVCAR-5) was 63.7 µM (inactive). The GI50 (OVCAR-8) was 42.9 µM (inactive), the GI50 (PC-3) was 39.3 µM (inactive) and the GI50 (RPMI-8226) was 38.5 µM (inactive). The GI50 (RXF 393) was 54.7 µM (inactive), the GI50 (SF-268) was 39.3 µM (inactive) and the GI50 (SF-539) was 35.6 µM (inactive). For the same compound, the GI50 (SK-MEL-28) was 25.9 µM (inactive), the GI50 (SK-MEL-2) was 41 µM (inactive) and the GI50 (SK-MEL-5) was 61.9 µM (inactive). The GI50 (SK-OV-3) was > 100 µM (inactive), the GI50 (SN12C) was 27 µM (inactive) and the GI50 (SNB-19) was 36.3 µM (inactive). The GI50 (SNB-75) was 96.2 µM (inactive), the GI50 (SR) was 46.6 µM (inactive) and the GI50 (SW-620) was 30.2 µM (inactive). For the same compound, the GI50 (T47D) was > 100 µM (inactive), the GI50 (TK-10) was 32.5 µM (inactive) and the GI50 (U-251) was 10 µM (inactive). For the same compound, the GI50 (UACC-257) was 40.2 µM (inactive), the GI50 (UACC-62) was 21.3 µM (inactive) and the GI50 (UO-31) was 33 µM (inactive).
COc1cc2c(c(N)c1OC)C(=O)/C(=C/c1cc(C)c(O)c(C)c1)C2 was tested, and the GI50 (786-0) was < 0.01 µM (active), the GI50 (A498) was 7.13 µM (inactive) and the GI50 (A549) was < 0.01 µM (active). For the same compound, the GI50 (BT-549) was 9.68 µM (inactive), the GI50 (CAKI-1) was 4.25 µM (inactive) and the GI50 (CCRF-CEM) was < 0.01 µM (active). For the same compound, the GI50 (COLO 205) was 5.6 µM (inactive), the GI50 (DU-145) was < 0.01 µM (active) and the GI50 (EKVX) was < 0.01 µM (active). The GI50 (HCC 2998) was 1.95 µM (inactive), the GI50 (HCT-116) was < 0.01 µM (active) and the GI50 (HCT-15) was under 0.01 µM. For the same compound, the GI50 (HL-60) was < 0.01 µM (active), the GI50 (HOP-62) was < 0.0176 µM (active) and the GI50 (HOP-92) was > 100 µM (inactive). The GI50 (HT-29) was 2.64 µM (inactive), the GI50 (IGROV-1) was 0.0367 µM (active) and the GI50 (K562) was < 0.01 µM (active). The GI50 (KM12) was < 0.01 µM (active), the GI50 (LOX IMVI) was < 0.01 µM (active) and the GI50 (M14) was < 0.01 µM (active). For the same compound, the GI50 (MCF7) was < 0.01 µM (active), the GI50 (MDA-MB-231) was 0.0141 µM (active) and the GI50 (MDA-MB-435) was < 0.01 µM (active). The GI50 (MDA-N) was < 0.01 µM (active), the GI50 (MOLT-4) was < 0.01 µM (active) and the GI50 (NCI-H226) was 4.19 µM (inactive). For the same compound, the GI50 (NCI-H23) was < 0.01 µM (active), the GI50 (NCI-H460) was < 0.01 µM (active) and the GI50 (NCI-H522) was < 0.01 µM (active). For the same compound, the GI50 (NCI/ADR-RES) was 0.0104 µM (active), the GI50 (OVCAR-3) was < 0.01 µM (active) and the GI50 (OVCAR-4) was 7.91 µM (inactive). The GI50 (OVCAR-5) was 0.693 µM (active), the GI50 (OVCAR-8) was < 0.01 µM (active) and the GI50 (PC-3) was < 0.01 µM (active). The GI50 (RPMI-8226) was < 0.01 µM (active), the GI50 (RXF 393) was 0.0323 µM (active) and the GI50 (SF-268) was < 0.01 µM (active). The GI50 (SF-295) was 0.0562 µM (active), the GI50 (SF-539) was < 0.01 µM (active) and the GI50 (SK-MEL-5) was < 0.01 µM (active). The GI50 (SK-OV-3) was < 0.01 µM (active), the GI50 (SN12C) was < 0.01 µM (active) and the GI50 (SNB-19) was < 0.01 µM (active). For the same compound, the GI50 (SR) was < 0.01 µM (active), the GI50 (SW-620) was < 0.01 µM (active) and the GI50 (T47D) was > 100 µM (inactive). For the same compound, the GI50 (TK-10) was > 76 µM (inactive), the GI50 (U-251) was < 0.0164 µM (active) and the GI50 (UACC-257) was > 100 µM (inactive). For the same compound, the GI50 (UACC-62) was < 0.01 µM (active).
